Key:
[1] = Contrast agent pharmacokinetics in plasma: bi-exponential fit of DCE-MRI signal enhancement curves (heart ventricle / great vessels) after bolus injection; assay type: in vivo; conditions: nude rats, bolus into tail vein, dose 0.1 mmol/kg wt
Procedure: Enhancement, E(t), is defined as the difference in signal intensities before and after contrast material injection: E(t)=[I(t)−I(t0)]/I(t0) Eq. (1) where I designates signal intensity. Assuming similar pharmacokinetics for all patients with normal kidney function, Cp(t) in ml contrast agent per liter blood may be given by the equation: Cp(t)=D(a1e^−m1^t+a2e^−m2^t) D=dose in ml/kg Eq. (2)
To determine contrast agent pharmacokinetics, GdDTPA was injected as a bolus into the tail of the rats at a dose of 0.1 mmol/kg. Changes in the bolus concentration of the contrast agent after injection were monitored by fitting the signal enhancement curves of the in vivo DCE-MRI studies, of regions of interest at the heart ventricle or in one of the great vessels, to a bi-exponential decay. Similar values were previously derived by measurements of blood samples taken after the bolus injection.
The time-dependent changes in signal enhancement were processed pixel-by-pixel using Tofts' physiological model, the contrast agent pharmacokinetics and pre-contrast T1 values (Table 1), and the calibration algorithms herein described.

[2] = listed under H460 NSCLC tumor tissue; Furman-Haran, 1997; cited from earlier work

O=C([O-])CN(CCN(CC(=O)[O-])CC(=O)O)CCN(CC(=O)[O-])CC(=O)O.[Gd+3] [Gd-DTPA, Gadolinium-diethylene triamino pentaacetic acid]
a1, Amplitude of fast decay [1]: 9.44 kg/L | a2, Amplitude of slow decay [1]: 3.99 kg/L | m1, Fast decay time constant [1]: 0.75 min⁻¹ | m2, Slow decay time constant [1]: 0.033 min⁻¹ | R1, T1 relaxivity [2]: 4.2 {Furman- s^−1mM^−1
